According to the NIST ThermoML archive (doi:10.1021/je5006938):
± gives the expanded uncertainty stated by the source.

Settings: Liquid, Closed cell (Static) method

Row | Structure (SMILES) | vapor or sublimation pressure (268.13 K) [kPa] | vapor or sublimation pressure (278.13 K) [kPa] | vapor or sublimation pressure (288.15 K) [kPa] | vapor or sublimation pressure (298.17 K) [kPa] | vapor or sublimation pressure (308.2 K) [kPa] | vapor or sublimation pressure (318.21 K) [kPa] | vapor or sublimation pressure (278.14 K) [kPa] | vapor or sublimation pressure (288.14 K) [kPa] | vapor or sublimation pressure (298.14 K) [kPa] | vapor or sublimation pressure (308.19 K) [kPa] | vapor or sublimation pressure (318.22 K) [kPa]
1 | FC(F)(F)C1(F)OC1(F)F (configuration not stated) [2,2,3-trifluoro-3-(trifluoromethyl)oxirane] | 258.47 ± 1.6 | 365.66 ± 1.8 | 503.71 ± 2.1 | 678.24 ± 2.5 | 894.42 ± 3 | 1160.2 ± 3.4 | – | – | – | – | –
2 | FC(F)=C(F)C(F)(F)F [hexafluoropropene] | 278.57 ± 1.7 | – | – | – | – | – | 394.08 ± 1.9 | 542.58 ± 2.2 | 729.82 ± 2.6 | 963.24 ± 3.2 | 1251.2 ± 3.6
